Here are results for 31 compounds from US7943618B2, “Btk protein kinase inhibitors” (Roche Palo Alto LLC, priority 2007, dated 2011).

SMILES strings stand for the structures.

For series [1], the target named is T1, Btk enzyme (His-tagged, full-length) (Homo sapiens, UniProt Q06187).
T1 construct: 5-10 nM Btk enzyme (His-tagged, full-length); His
Kind of series: Bruton's Tyrosine Kinase (Btk) Inhibition Assay (33P filtration capture). The series is classed as biochemical. Particulars: Bruton's tyrosine kinase Assay (Example 34), 100 μM ATP. An excerpt:
Bruton's Tyrosine Kinase (Btk) Inhibition Assay
The assay is a capture of radioactive ^33P phosphorylated product through filtration. The interactions of Btk, biotinylated SH2 peptide substrate (Src homology), and ATP lead to phosphorylation of the peptide substrate. Biotinylated product is bound streptavidin sepharose beads. All bound, radiolabeled products are detected by scintillation counter.
Plates assayed are 96-well polypropylene (Greiner) and 96-well 1.2 μm hydrophilic PVDF filter plates (Millipore).
IC50 determinations are calculated from 10 data points per compound utilizing data produced from a standard 96-well plate assay template. One control compound and seven unknown inhibitors were tested on each plate and each plate was run twice. […] The control compound was staurosporine. Background was counted in the absence of peptide substrate. Total activity was determined in the presence of peptide substrate. The following protocol was used to determine Btk inhibition.
1) Sample preparation: The test compounds were diluted at half-log increments in assay buffer (imidazole, glycerol-2-phosphate, EGTA, MnCl2, MgCl2, BSA).
2) Bead preparation • a.) rinse beads by centrifuging at 500 g • b.) reconstitute the beads with PBS and EDTA to produce a 20% bead slurry
3) Pre-incubate reaction mix without substrate (assay buffer, DTT, ATP, ^33P ATP) and mix with substrate (assay buffer, DTT, ATP, ^33P ATP, peptide substrate) 30° C. for 15 min.
4) To start assay, pre-incubate 10 μL Btk in enzyme buffer (imidazole, glycerol-2-phosphate, BSA) and 10 μL of test compounds for 10 min at RT.
5) Add 30 μL reaction mixture without or with substrate to Btk and compounds.
6) Incubate 50 μL total assay mix for 30 min at 30° C.
7) Transfer 40 μL of assay to 150 μL bead slurry in filter plate to stop reaction.
8) Wash filter plate after 30 min, with following steps • a. 3×250 μL NaCl • b. 3×250 μL NaCl containing 1% phosphoric acid • c. 1×250 μL H2O
9) Dry plate for 1 h at 65° C. or overnight at RT
10) Add 50 μL microscint-20 and count ^33P cpm on scintillation counter.
Calculate percent activity from raw data in cpm percent activity=(sample−bkg)/(total activity−bkg)×100
Calculate IC50 from percent activity, using one-site dose response sigmoidal model y=A+((B−A)/(1+((x/C)^D))))

T1 sequence (Q06187 whole entry): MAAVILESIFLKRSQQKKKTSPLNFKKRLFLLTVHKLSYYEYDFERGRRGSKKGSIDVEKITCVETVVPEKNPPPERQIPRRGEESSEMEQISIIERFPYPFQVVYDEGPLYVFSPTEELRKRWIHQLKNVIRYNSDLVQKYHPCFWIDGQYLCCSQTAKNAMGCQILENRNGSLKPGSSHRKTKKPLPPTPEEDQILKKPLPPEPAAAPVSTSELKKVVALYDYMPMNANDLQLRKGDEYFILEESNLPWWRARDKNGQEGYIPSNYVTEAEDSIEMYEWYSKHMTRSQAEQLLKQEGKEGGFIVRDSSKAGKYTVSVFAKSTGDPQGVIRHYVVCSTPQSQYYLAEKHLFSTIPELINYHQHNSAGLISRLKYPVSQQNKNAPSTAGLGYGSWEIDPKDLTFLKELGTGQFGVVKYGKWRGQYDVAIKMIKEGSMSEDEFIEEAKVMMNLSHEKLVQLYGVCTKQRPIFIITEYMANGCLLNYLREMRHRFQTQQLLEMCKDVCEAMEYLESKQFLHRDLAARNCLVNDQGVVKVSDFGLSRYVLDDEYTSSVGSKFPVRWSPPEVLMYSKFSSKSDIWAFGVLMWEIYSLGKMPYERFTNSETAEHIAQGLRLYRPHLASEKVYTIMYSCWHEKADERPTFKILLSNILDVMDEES

For `Cc1c(NC(=O)c2ccc(C(C)(C)C)cc2)cccc1-c1cc(Nc2ccnc(OCCN(C)C)n2)c(=O)n(C)n1` [Compound I-18], the melting point (usually the temperature of the solid-liquid transition) lay in the range of 188 to 189 °C. Also, half-maximal inhibition in series [1] (Table I pyridazinones) (IC50) was put at 326 nM.
The like results for `Cc1c(NC(=O)c2ccc(C(C)(C)C)cc2)cccc1-c1cc(Nc2ccnc(N3CCC(CO)C3)n2)c(=O)n(C)n1` (centres unmarked) [Compound I-20] were, in that order, 210 to 211 °C and 125 nM.
On to `Cc1c(NC(=O)c2ccc(C(C)(C)C)cc2)cccc1-c1cc(Nc2ccnc(N3CCCC3)n2)c(=O)n(C)n1` [Compound I-21], for which the melting point is 193 to 195 °C. For the same compound, the IC50 (in general, the midpoint of a concentration-inhibition curve) in series [1] (Table I pyridazinones) amounted to 354 nM.
The like results for `CNC(=O)Nc1cc(-c2cccc(NC(=O)c3ccc(C(C)(C)C)cc3)c2C)nn(C)c1=O` [Compound I-23, 4-tert-Butyl-N-{2-methyl-3-[1-methyl-5-(3-methyl-ureido)-6-oxo-1,6-dihydro-pyridazin-3-yl]-phenyl}-benzamide] were, in that order, 287 to 288 °C and 101 nM.
Compound `Cc1c(NC(=O)c2ccc(C(C)(C)C)cc2)cccc1-c1cc(Nc2ccc(C(=O)N3CCOCC3)cc2)c(=O)n(C)n1` [Compound I-24] gave a melting point of 157 to 158 °C. Besides, the IC50 in series [1] (Table I pyridazinones) was found to be 110 nM.
The corresponding values for `Cn1nc(-c2cccc(NC(=O)c3ccc(C(C)(C)C)cc3)c2)cc(Nc2ccc(C(=O)N3CCOCC3)cn2)c1=O` [Compound I-25] are 229 to 230 °C and 120 nM.
The corresponding values for `CCNC(=O)Nc1cc(-c2cccc(NC(=O)c3ccc(C(C)(C)C)cc3)c2C)nn(C)c1=O` [Compound I-27] are 278 to 279 °C and 122 nM.
The like results for `COc1cc(C(C)(C)C)ccc1C(=O)Nc1cccc(-c2cc(Nc3ccc(C(=O)N4CCOCC4)cn3)c(=O)n(C)n2)c1` [Compound I-30] were, in that order, 216 to 217 °C and 59 nM.
`Cn1nc(-c2cccc(CC(=O)N3CCCC3)c2)cc(Nc2ccc(C(=O)N3CCOCC3)cn2)c1=O` [Compound I-33] returned a melting point of 117 to 118 °C. Also, the concentration for half-maximal inhibition (IC50) in series [1] (Table I pyridazinones) amounted to 16400 nM.
As for `CC(C)OC1CN(C(=O)Cc2cccc(-c3cc(Nc4ccc(C(=O)N5CCOCC5)cn4)c(=O)n(C)n3)c2)C1` [Compound I-35], the melting point lay in the range of 92 to 93 °C. Half-maximal inhibition in series [1] (Table I pyridazinones) (IC50) required 418 nM.
The like results for `Cn1nc(-c2cccc(CC(=O)OCCOC(C)(C)C)c2)cc(Nc2ccc(C(=O)N3CCOCC3)cn2)c1=O` [Compound I-36] were, in that order, 80 to 81 °C and 2200 nM.
The corresponding values for `Cn1nc(-c2cccc(CC(=O)N3Cc4ccccc4C3)c2)cc(Nc2ccc(C(=O)N3CCOCC3)cn2)c1=O` [Compound I-40] are 179 to 180 °C and 680 nM.
The corresponding values for `CC(C)N1CCN(C(=O)Cc2cccc(-c3cc(Nc4ccc(C(=O)N5CCOCC5)cn4)c(=O)n(C)n3)c2)CC1` [Compound I-41] are 209 to 210 °C and 6250 nM.
As for `Cn1nc(-c2cccc(CC(=O)N3CCC(C(C)(C)C)CC3)c2)cc(Nc2ccc(C(=O)N3CCOCC3)cn2)c1=O` [Compound I-42], the melting point is 231 to 232 °C. For the same compound, the IC50 in series [1] (Table I pyridazinones) was 2350 nM.
As to `Cn1nc(-c2cccc(CC(=O)NCCC(C)(C)C)c2)cc(Nc2ccc(C(=O)N3CCOCC3)cn2)c1=O` [Compound I-43], the melting point was 138 to 139 °C. The same compound returned an IC50 in series [1] (Table I pyridazinones) of 6290 nM.
In the case of `Cc1c(NC(=O)c2ccc(C(C)(C)C)cc2)cccc1-c1cc(NC(=O)NC(C)C)c(=O)n(C)c1` [II-6], the melting point lay in the range of 185 to 186 °C. This compound also displayed an IC50 in series [1] (Table II pyridinones) of 308 nM.
The like results for `Cc1c(NC(=O)c2ccc(C(C)(C)C)cc2)cccc1-c1cc(NC(=O)NCC(F)(F)F)c(=O)n(C)c1` [II-7] were, in that order, 258 to 259 °C and 867 nM.
In the case of `Cc1c(NC(=O)c2ccc(C(C)(C)C)cc2)cccc1-c1cc(NC(=O)Nc2ccccc2)c(=O)n(C)c1` [II-8], the melting point lay within 219 to 220 °C. Also, 7320 nM corresponded to half-maximal inhibition in series [1] (Table II pyridinones) (IC50).
On to `Cc1c(NC(=O)c2ccc(C(C)(C)C)cc2)cccc1-c1cc(NC(=O)NCc2ccccc2)c(=O)n(C)c1` [II-9], for which the melting point was 169 to 170 °C. In addition, the midpoint of inhibition in series [1] (Table II pyridinones), the IC50, lay at 1240 nM.
On to `CNC(=O)Nc1cc(-c2cccc(NC(=O)c3cc4ccccc4s3)c2C)cn(C)c1=O` [II-10], for which the melting point was 286 to 287 °C. In addition, inhibition in series [1] (Table II pyridinones) was half-maximal at 131 nM (IC50).
The like results for `CNC(=O)Nc1cc(-c2cccc(NC(=O)c3cc4c(s3)CCCC4)c2C)cn(C)c1=O` [II-11, 4,5,6,7-Tetrahydro-benzo[b]thiophene-2-carboxylic acid{2-methyl-3-[1-methyl-5-(3-methyl-ureido)-6-oxo-1,6-dihydro-pyridin-3-yl]-phenyl}-amide] were, in that order, 254 to 255 °C and 40 nM.
The like results for `CNC(=O)Nc1cc(-c2cccc(NC(=O)N3Cc4ccc(F)cc4C3)c2C)cn(C)c1=O` [II-14] were, in that order, 262 to 263 °C and 1950 nM.
Compound `Cc1c(NC(=O)c2ccc(C(C)(C)C)cc2)cccc1-c1cc(NC(=O)NCCN(C)C)c(=O)n(C)c1` [II-16] displayed a melting point of 164 to 165 °C. This compound showed an IC50 in series [1] (Table II pyridinones) of 129 nM.
The corresponding values for `CNC(=O)Nc1cc(-c2cccc(NC(=O)N3Cc4ccccc4C3)c2C)cn(C)c1=O` [II-17, 1,3-Dihydro-isoindole-2-carboxylic acid{2-methyl-3-[1-methyl-5-(3-methyl-ureido)-6-oxo-1,6-dihydro-pyridin-3-yl]-phenyl}-amide] are 264 to 265 °C and 666 nM.
The corresponding values for `Cc1c(NC(=O)c2ccc(C(C)(C)C)cc2)cccc1-c1cc(NC(=O)NCCO)c(=O)n(C)c1` [II-18] are 220 to 221 °C and 38 nM.
The corresponding values for `Cc1c(NC(=O)c2ccc(C(C)(C)C)cc2)cccc1-c1cc(NC(=O)NCCCN(C)C)c(=O)n(C)c1` [II-22] are 194 to 195 °C and 29 nM.
The compound `CNC(=O)Nc1cc(-c2cccc(CC(=O)N3CC(OC(C)(C)C)C3)c2)cn(C)c1=O` [II-29, 1-(5-{3-[2-(3-tert-Butoxy-azetidin-1-yl)-2-oxo-ethyl]-phenyl}-1-methyl-2-oxo-1,2-dihydro-pyridin-3-yl)-3-methyl-urea] registered a melting point of 125 to 126 °C. Inhibition in series [1] (Table II pyridinones) was half-maximal at 1400 nM (IC50).
The corresponding values for `CNC(=O)Nc1cc(-c2cccc(CC(=O)N3CC(OC(C)C)C3)c2)cn(C)c1=O` [II-30] are 118 to 119 °C and 4370 nM.
The like results for `CNC(=O)Nc1cc(-c2cccc(CC(=O)N3Cc4ccccc4C3)c2)cn(C)c1=O` [II-45] were, in that order, 251 to 252 °C and 1560 nM.
The like results for `CNC(=O)Nc1cc(-c2cccc(CC(=O)N3CC(CC(C)(C)O)C3)c2)cn(C)c1=O` [II-47] were, in that order, 113 to 114 °C and 54700 nM.
As to `CCN(CC)Cc1ccc(Nc2cc(-c3cccc(NC(=O)c4ccc(C5(F)CC5)cc4)c3CO)cn(C)c2=O)nc1` [II-70, N-{3-[5-(5-Diethylaminomethyl-pyridin-2-ylamino)-1-methyl-6-oxo-1,6-dihydro-pyridin-3-yl]-2-hydroxymethyl-phenyl}-4-(1-fluoro-cyclopropyl)-benzamide], the melting point fell in the range of 203 to 204 °C. Also, the IC50 in series [1] (Table II pyridinones) is < 10 nM.
